The text below walks through data of US20240415835A1, “COMPOSITIONS COMPRISING AN ERK INHIBITOR” (Otsuka Pharmaceutical Co., Ltd., priority 2021, published 2024).

Each structure is given as a SMILES string. In brackets after ≈: the same amount, converted by molar mass.

Series [1] in a line: Primate study, 3-way crossover, oral administration. The format is in vivo. The conditions noted are these: monkeys, oral 20 mg/kg, three dosing occasions. The method, then: A total of 6 animals were used in a 3-way (2+2+2) crossover design where, on each of the three dosing occasions, 2 of the animals were administered Compound I in powder in bottle (PiB) suspension in vehicle for reconstitution (20 mg/kg), 2 of the animals were administered Compound I solid dispersion suspension (20 mg/kg) of Example 1, while another 2 animals were administered Compound I in a tablet form (20 mg/kg) of Example 2. The vehicle for reconstitution comprised Propylene Glycol USP 80.0% w/w; Ethanol USP 10.0% w/w; Vit E TPGS USP 10.0% w/w for a total of 100.0% w/w.
Dosing for this study was conducted in fasted state. […]
The animals were observed closely during the first 12 hrs after each dosing and once daily on non-dosing days. Body weights were measured and recorded prior to dosing and blood samples for pharmacokinetic profiling were taken at the pre-defined time points for all animals. […] All plasma samples from this study were analyzed by this method and plasma concentration of Compound I were expressed in terms of ng/mL.
The error bars refer to standard deviation. […] AUClast refers to the area under the concentration-time curve from dosing (time 0) to the time of the last measured concentration (24 hours).

The nature of series [2]: gastric to intestinal (G-IB) transfer microcentrifuge dissolution test. It is filed as physicochemical. The method, then: The solid dispersions described in Example 1 were evaluated in two non-sink dissolution tests to evaluate various aspects of the formulations and how they might be differentiated. The two dissolution tests that were evaluated include a gastric to intestinal (G-IB) transfer microcentrifuge dissolution test and an ultracentrifuge free-drug test.
The gastric-to-intestinal buffer (G-IB) transfer dissolution test is used to measure the supersaturation of drug above the solubility of bulk drug when dosed as a powder, first into media at a lower pH value to imitate a fasted stomach. After 30 minutes of exposure to the gastric media, the samples are transferred into the higher pH media as an imitation of the intestine. The drug concentrations measured in this test are a composite of free drug, drug in micelles, and drug suspended in solution as drug/polymer colloids.
The G-IB dissolution test is performed the same way, but with a 30 minute gastric exposure prior to transferring into the intestinal media. The intestinal media for the G-IB dissolution test is doubly concentrated in terms of buffering and bile salts, so that after the gastric transfer step, the final pH is 6.5 and SIF concentration is 0.5 wt %.
The microcentrifuge dissolution test separates the precipitate (undissolved drug) and total solubilized drug. Total solubilized drug consists of three solubilized species: freely solubilized drug, drug associated with bile salt micelles, and drug associated with polymer (drug-polymer colloids). These three species have different activities in vivo and differentiate formulations. The freely solubilized drug is the smallest species and is the most readily available for absorption. Freely solubilized drug can cross the unstirred mucous boundary layer and be absorbed into the blood through the epithelium. The drug associated with micelles diffuse across the unstirred mucous boundary layer and resupply free drug as it is absorbed. Finally, the drug-polymer colloids also resupply free drug as it is absorbed and can have a contribution to effective diffusion rate. These colloids can be important depending on the rate-limiting step for absorption.
A solid dispersion comprising Compound I: HPMCAS in a ratio of 1:2 (“33.3% HPMCAS”) was prepared from 2.7 grams of the free base hydrate crystalline form B of Compound I and 5.3 grams of HPMCAS (Shin Etsu, L grade, F particle size (≤10 microns particle size)), using a similar procedure of Example 1. Briefly, 2 mg test compound/mL in 0.9 mL gastric buffer was transferred to a final dose of 1 mg/mL in 1.8 mL of 0.5% SIF in PBS at pH 6.5 at room temperature to provide 1.8 mL total volume test solution. The samples were centrifuged at 15,800 g for 1 minute. At specified timepoint, 50 μL aliquot samples were diluted 6× with 50/50 acetonitrile/water and assayed by HPLC.
The solid dispersion was evaluated together with the 25% Compound I: HPMCAS solid dispersion (“25% HPMCAS”) and 95.3% Compound I (freebase hydrate, “Crystalline API”), using the G-IB dissolution test described in Example 3-1.

Series [3] in a line: ultracentrifuge free-drug test (drug speciation). The format is physicochemical.
Protocol: The ultracentrifuge free-drug analysis is used to determine the species of dissolved drug that are present for each formulation. This test is performed at several timepoints, i.e., 0, 30, 60 and 90 minutes, during the microcentrifuge test, and it consists of a centrifugation step at 300,000 g that removes any colloidal species that are present, leaving only the free drug and drug in micelle species. In combination with the microcentrifuge data, this allows for determination of free drug and colloidal content at the timepoint where both are tested.
Setting [4] is: intestinal buffer, 0.5% SIF in PBS pH 6.5, 1 mg/mL.

One may read the solubility as the dissolved amount per volume that the medium holds.

As for `COc1cc(F)cc([C@@H](CO)NC(=O)[C@@H](C)N2Cc3ccc(-c4nc(NC5CCOCC5)ncc4Cl)cc3C2=O)c1` [Compound I, (2R)-2-(6-{5-chloro-2-[(tetrahydro-2H-pyran-4-yl)amino]pyrimidin-4-yl}-1-oxo-2,3-dihydro-1H-isoindol-2-yl)-N-[(S)-1-(3-fluoro-5-methoxyphenyl)-2-hydroxyethyl]propanamide], the “clinical signs as a result of treatment” value in series [1] was “no clinical signs”.

As to `COc1cc(F)cc([C@@H](CO)NC(=O)[C@@H](C)N2Cc3ccc(-c4nc(NC5CCOCC5)ncc4Cl)cc3C2=O)c1` [Crystalline API], in series [2] (gastric buffer, 2 mg/mL, room temperature), the CmaxGB is 20000 ng/mL. Further, the C1200 in series [2] (intestinal buffer, 0.5% SIF in PBS pH 6.5) is 21 µg/mL. For the same molecule, in series [2] (setting [4]), the “AUC4-90 IB” value is recorded as 1,610 min*μg/mL, the “C90 IB” value was determined as 21 µg/mL and the “Cmax90 IB” value stood at 21000 ng/mL. For the same molecule, in series [3] (ultracentrifuge), the Ultra1200 came out at 19 µg/mL. For the same molecule, the Ultra90 in series [3] (ultracentrifuge, 90 minutes) was 21 µg/mL.

For the molecule `COc1cc(F)cc([C@@H](CO)NC(=O)[C@@H](C)N2Cc3ccc(-c4nc(NC5CCOCC5)ncc4Cl)cc3C2=O)c1` [amorphous Compound I], the solubility in series [3] (pH 6.5, fassgf or other biorelevant, FIG. 2 speciation data from the dissolution test) was approximately 15 µg/mL (≈ 25.7 µM).
